From ChEMBL document CHEMBL1128977, “Antioxidant properties of nitrocaffeic acids” (Bioorg Med Chem Lett, 1996)

How the values were obtained:
[1] = Compound was evaluated for hydroxyl radical (OH) scavenging activity
[2] = Superoxide anion (O2-) scavenging activity
[3] = target: Xanthine dehydrogenase/oxidase (Homo sapiens, UniProt P47989); assay: Compound was evaluated for inhibition of xanthine oxidase; design: concentration or dose not given beside the values
Xanthine dehydrogenase/oxidase, sequence (P47989 whole entry): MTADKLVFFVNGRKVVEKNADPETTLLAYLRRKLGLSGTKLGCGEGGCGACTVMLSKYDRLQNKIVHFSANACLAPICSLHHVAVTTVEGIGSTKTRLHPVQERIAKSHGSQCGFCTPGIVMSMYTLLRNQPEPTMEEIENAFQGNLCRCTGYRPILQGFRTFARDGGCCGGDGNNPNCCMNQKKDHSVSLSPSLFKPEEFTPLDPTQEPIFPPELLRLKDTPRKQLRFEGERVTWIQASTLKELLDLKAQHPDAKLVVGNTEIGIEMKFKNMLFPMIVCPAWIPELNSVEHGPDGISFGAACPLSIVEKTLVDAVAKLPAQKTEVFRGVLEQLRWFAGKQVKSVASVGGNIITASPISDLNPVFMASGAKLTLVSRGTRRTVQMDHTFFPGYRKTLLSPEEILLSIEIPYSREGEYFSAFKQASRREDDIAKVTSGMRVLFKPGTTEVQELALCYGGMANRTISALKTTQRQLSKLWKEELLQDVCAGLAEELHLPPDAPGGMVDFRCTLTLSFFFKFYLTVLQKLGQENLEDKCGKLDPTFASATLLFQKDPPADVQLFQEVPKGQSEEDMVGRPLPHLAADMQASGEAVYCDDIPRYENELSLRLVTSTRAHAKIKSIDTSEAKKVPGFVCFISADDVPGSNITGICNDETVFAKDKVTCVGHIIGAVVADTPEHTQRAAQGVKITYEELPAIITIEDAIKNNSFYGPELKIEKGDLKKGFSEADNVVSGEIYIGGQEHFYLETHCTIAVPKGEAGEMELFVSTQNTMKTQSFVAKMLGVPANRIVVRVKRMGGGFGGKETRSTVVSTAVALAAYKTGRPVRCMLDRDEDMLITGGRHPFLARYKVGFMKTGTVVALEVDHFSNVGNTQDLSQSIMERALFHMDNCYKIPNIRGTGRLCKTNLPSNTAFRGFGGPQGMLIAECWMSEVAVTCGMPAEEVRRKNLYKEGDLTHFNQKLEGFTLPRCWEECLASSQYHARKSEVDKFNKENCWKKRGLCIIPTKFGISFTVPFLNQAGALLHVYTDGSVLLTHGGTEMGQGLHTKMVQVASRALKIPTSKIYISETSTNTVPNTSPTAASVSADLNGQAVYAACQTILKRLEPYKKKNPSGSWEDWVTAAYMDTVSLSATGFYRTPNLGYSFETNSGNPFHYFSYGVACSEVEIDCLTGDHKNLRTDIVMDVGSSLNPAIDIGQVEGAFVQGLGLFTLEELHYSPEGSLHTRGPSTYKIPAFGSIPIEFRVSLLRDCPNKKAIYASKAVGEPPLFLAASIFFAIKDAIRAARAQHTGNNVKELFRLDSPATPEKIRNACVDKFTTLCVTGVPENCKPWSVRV

Compound | IC50 [1] [µM] | IC50 [2] [µM] | Inhibition [3] [%]
O=C(O)/C=C/c1cc(O)c(O)c([N+](=O)[O-])c1 | 400 | 185 | 70
O=C(O)/C=C/c1cc(O)c(O)cc1[N+](=O)[O-] | 250 | 150 | 36
CC(=O)C(Cc1cc(O)c(O)c([N+](=O)[O-])c1)C(C)=O | 300 | 500 | –
Oc1ccccc1O [CATECHOL] | – | 30 | 5
O=C(O)/C=C/c1ccc(O)c(O)c1[N+](=O)[O-] | 425 | 35 | 61

More lines, now with the values ahead:

IC50 [1] [µM] | IC50 [2] [µM] | Inhibition [3] [%] | Compound
– | 95 | 18 | O=C(O)/C=C/c1ccc(O)c(O)c1 [CAFFEIC ACID]
85 | 1000 | 12 | O=[N+]([O-])c1cc(O)ccc1O
180 | 250 | 5 | O=[N+]([O-])c1cccc(O)c1O
130 | 250 | 9 | O=[N+]([O-])c1ccc(O)c(O)c1 [4-Nitrocatechol]
